Measured values as given in publication PMC7870626, “Neurotoxicity and underlying cellular changes of 21 mitochondrial respiratory chain inhibitors” (Archives of Toxicology, 2021).
Where two headings read alike, the source gives them in different places.

Legend:
LUHMES cells [1] = type: cell-based, human; conditions: 24 h, vs 0.1% DMSO; for log2FoldChange AARS: gene AARS; for log2FoldChange AASDHPPT: gene AASDHPPT; for log2FoldChange AATF: gene AATF; for log2FoldChange ABCA1: gene ABCA1; for log2FoldChange ABCA6: gene ABCA6
Experimental: Cells were cultured and treated as described above for the NeuriTox assay. On d3, after 24 h treatment, culture medium was replaced by 33 µl/well 1 × Biospyder lysis buffer. After 15 min at room temperature, plates were sealed and frozen at -80 °C to complete lysis. Samples were analyzed at Bioclavis (Glasgow) using the TempO-Seq technique and the EU-ToxRisk v2.0 gene probe panel covering ca. 3000 genes (Yeakley et al. [2017]). All genes are listed in the supplementary excel file (containing also all gene regulations). Briefly, a 50 bp fragment of the target gene was amplified. The amplification step also introduced sample-specific barcodes. This allowed pooling of all samples and standard next-generation sequencing of the ensemble. Afterward, adapters were used to allocate the sequenced fragments to the correct samples. Finally, the alignment of all sequenced fragments (FASTQ files) for each sample to the collection of reference 50 bp oligonucleotides was performed for the quantification of reads per gene, also known as the read count values. In a pre-filtering step, samples with a total count < 0.2 million and genes with an average count < 1.5 were removed.
To correct for both read depth and RNA composition, the DESeq2′s median of ratios normalization was applied. The analysis of differentially expressed genes (DEG) of each treatment against the control group was done by the Wald test implemented in DESeq2/R (Love et al. [2014]), including an FDR correction for p-adjusted ≤ 0.05. […] A curve was fit through these concentration–response data to obtain EC10DEG. For comparability, all DEG data were normalized to a positive control. […] The EC10DEG was calculated using an established online open access BMC calculator (BMCeasy) (Krebs et al. [2020]).

SH-SY5Y cells = experiment: Mitochondrial membrane potential (rhodamine 123), KE2 assay; type: cell-based, human; conditions: for Ratios of EC25 KE4/KE2 MMP: NeuriTox neurite EC25 relative to SH-SY5Y MMP EC25
Experimental: Cells were plated at a cell density of 29,500 cells/cm^2 and handled as described above for the neurite SH-SY5Y degeneration. On d6 of differentiation, 50% of the medium was replaced by differentiation medium containing 2 µM Rhodamine 123 (ThermoFisher). After 45 min of preloading at 37 °C with 5% CO2 in darkness, the Rhodamine 123 solution was completely removed and cells were carefully washed once with 200 µl DMEM:F12. Subsequently, 50 µl differentiation medium per well were added followed by the addition of 50 µl/well of test compounds in medium. After 24 h of exposure to the test compounds, the nuclei were stained for 30 min with 20 µL of a solution containing 20 µM Hoechst 33342, and the images were then acquired with a 10 × objective lens using the ImageXpress® Micro (Molecular Devices) high content microplate imager. Nuclei were evaluated in the DAPI channel (excitation 377 ± 50 nm, emission 447 ± 60 nm), whereas Rhodamine 123 fluorescence was detected in the FITC channel (excitation 475 ± 34 nm, emission 536 ± 40 nm). Analysis of the Hoechst 33,342 and Rhodamine 123 fluorescence was performed using the MetaXpress® Software (Molecular Devices) with the Transfluor HT plug-in and the parameters nuclei (for Hoechst-33342) and integrated granule intensity (for Rhodamine 123). Mitochondrial membrane potential (MMP) was quantified as the total fluorescence intensity of Rhodamine 123 in relation to the number of Hoechst-stained nuclei.

proteasome = experiment: Proteasomal activity (KE3 assay) in LUHMES cells; type: cell-based, human; conditions: NeuriTox neurite EC25 relative to proteasomal activity EC25, LUHMES
Experimental: Activity of the proteasome was quantified as described in (Gutbier et al. [2018b]). Briefly, after exposure, culture medium was replaced by assay buffer containing a cell-permeable proteasomal substrate (MeOSuc-Gly-Leu-Phe-AMC, 25 µM (Bachem, Bubendorf, Switzerland) in HBSS). Its AMC-fluorescence (ex: 360 nm, em: 465 nm) increases with proteasomal activity and was monitored for 90 min. Background-corrected data were used for further analysis.

[2] = system: MRC complex (cI, cII or cIII); experiment: HepG2-based MRC complex assay in permeabilized cells (earlier study); type: cell-based; conditions: NeuriTox neurite EC25 relative to complex assay EC25 in permeabilized cells; respirometric data from HepG2-based assays ref van der Stel et al. 2020
LUHMES cells [3] = experiment: NeuriTox test: neurite area and viability, 24 h; type: cell-based, human; conditions: for EC25: Homo sapiens
Experimental: (§1) The NeuriTox test was performed as previously described (Delp et al. [2018b]; Krug et al. [2013a]; Stiegler et al. [2011]). Briefly, cells differentiated for 48 h were re-seeded into 96-well plates at a density of 100,000 cells/cm^2 in DM without cAMP and GDNF, and treated 1 h after seeding for 24 h. Subsequently, multiple endpoints were determined, e.g., neurite outgrowth (i.e., NeuriTox test), resazurin reduction, intracellular ATP content, gene expression levels from TempO-Seq analysis, and proteasomal activity. For the 120 h exposure scenario, LUHMES cells were differentiated for another 3 days after reseeding before they were treated on day 5 (d5) and d7 by a half medium exchange. Endpoints were determined on d10 of differentiation.
Image acquisition and analysis was performed as described previously (Krug et al. [2013a]; Schildknecht et al. [2013]; Stiegler et al. [2011]). In brief, cells were live-stained with 1 µg/ml Hoechst H-33342 and 1 µM calcein-AM and image acquisition was done by an automated high content imager (Cellomics, Waltham, MA, USA). Cell viability was determined as ratio of live cells (cell bodies being Calcein- and Hoechst-positive) relative to the total amount of cells (Hoechst-positive cell bodies). Neurite area was calculated by subtracting the somatic area (Hoechst-positive area plus surrounding) from the calcein-positive area.

HepG2 cells = experiment: HepG2-based respirometry, total cell respiration (earlier study); conditions: NeuriTox neurite EC25 relative to cell respiration EC25; respirometric data from HepG2-based assays ref van der Stel et al. 2020
LUHMES cells [4] = experiment: Intracellular ATP content after NeuriTox exposure; type: cell-based; conditions: Homo sapiens; NeuriTox exposure scheme, 24 h; read-out: LUHMES 24 h EC25 ATP (converted)
Experimental: as §1
Plates from the NeuriTox test were further used after imaging for determination of alternative endpoints. Intracellular ATP was determined as described earlier (Delp et al. [2019]). In brief, CellTiterGlo 2.0 assay mix (Promega) containing luciferase was added after imaging, and luminescence was recorded. For the determination of resazurin reduction, a 10 × resazurin stock solution was added after imaging to the medium (final resazurin concentration 2 µg/ml) (Delp et al. [2018a]). After 60 min incubation, resazurin fluorescence was recorded (ex: 530 nm, em: 590 nm). Background-corrected data was used for further analysis.

U2OS cells = experiment: cells; type: cell-based; conditions: Homo sapiens; U2OS osteosarcoma cells, 24 h, luminescence of constitutively expressed luciferase; read-out: Cytotox EC25 U2OS (converted)
Experimental: A cell suspension of 100,000 cells/ml was prepared in assay medium, and white 384-well plates were filled with 30 µl/well cell suspension. Twenty-four hours after seeding, a dilution series of test compound, as well as positive and negative controls, were added to the cells. After 24 h exposure, the medium was removed, and 10 µl of Triton X-100 lysis buffer was added to each well. The luminescent signal was determined in a luminometer by injecting BDS Illuminate Mix and measuring the light emission. The Cytotox CALUX cell line constitutively expresses a high level of luciferase protein; the light emission is therefore proportional to the cell number of live cells, and its decrease can be used as measure of cytotoxicity. The light emission generated by cells exposed to vehicle control was set to 100%, and the luminescence of cells exposed to the positive control toxicant tributyltin acetate [100 µM] was set to 0%. The light output of the cells exposed to different concentrations of test compounds was scaled accordingly.

[5] = NeuriTox test, neurite outgrowth impairment, LUHMES 24 h
[6] = NeuriTox exposure scheme, 24 h, read-out: LUHMES 24 h EC25 NA (neurite area) (converted)
[7] = NeuriTox exposure scheme, 24 h, read-out: LUHMES 24 h EC25 V (viability) (converted)

| SMILES | Ratios of EC25 KE4/KE2 MMP (SH-SY5Y cells) | Ratios of EC25 KE4/KE1 complex assay [2] | Ratios of EC25 KE4/KE1 total respiration (HepG2 cells) | EC25 (LUHMES cells [4]) | EC25 (U2OS cells) | EC25 (LUHMES cells [3]; [6]) | EC25 (LUHMES cells [3]; [7]) | also measured |
| --- | --- | --- | --- | --- | --- | --- | --- | --- |
| CO/C=C(/C(=O)OC)c1ccccc1Oc1cc(Oc2ccccc2C#N)ncn1 [Azoxystrobin] | 9.8 | 4.0 | 10.0 | – | – | – | – | log2FoldChange AARS (LUHMES cells [1]; 0.10 µM): -0.16 log2; log2FoldChange AASDHPPT (LUHMES cells [1]; 0.10 µM): 0.0857 log2; log2FoldChange AATF (LUHMES cells [1]; 0.10 µM): -0.0134 log2; log2FoldChange ABCA1 (LUHMES cells [1]; 0.10 µM): -0.16 log2; log2FoldChange ABCA6 (LUHMES cells [1]; 0.10 µM): -1.97 log2; Ratios of EC25 KE4/KE3 proteasomal (proteasome): 0.9; EC25 KE4 (AO) Neurite toxicity (LUHMES cells [3]; [5]): 4.5 -log[M] |
| CSC1=N[C@@](C)(c2ccccc2)C(=O)N1Nc1ccccc1 [Fenamidone] | – | – | ≥ 10 | > 50.1 µM | > 100 µM | > 50.1 µM | > 50.1 µM | – |
| CC(C)(C)c1ccc(CCOc2ncnc3ccccc23)cc1 [Fenazaquin] | – | ≥ 800 | 40–60 | 10 µM | > 100 µM | 10 µM | 15.8 µM | – |
| Cc1occc1C(=O)Nc1ccccc1 [Fenfuram] | – | – | – | > 100 µM | > 100 µM | > 100 µM | > 100 µM | – |
| CC(C)Oc1cccc(NC(=O)c2ccccc2C(F)(F)F)c1 [Flutolanil] | – | – | – | 79.4 µM | > 100 µM | 79.4 µM | > 100 µM | – |
| CO/N=C(/C(=O)OC)c1ccccc1COc1ccccc1C [Kresoxim-methyl] | – | – | ≥ 10 | 31.6 µM | > 100 µM | 50.1 µM | 39.8 µM | – |
| CO/C=C(/C(=O)OC)c1ccccc1COc1cccc(C(F)(F)F)n1 [Picoxystrobin] | 4.7 | 31.6 | 63 | – | – | – | – | log2FoldChange AARS (LUHMES cells [1]; 0.10 µM): -0.76 log2; log2FoldChange AASDHPPT (LUHMES cells [1]; 0.10 µM): 1.04 log2; log2FoldChange AATF (LUHMES cells [1]; 0.10 µM): -0.34 log2; log2FoldChange ABCA1 (LUHMES cells [1]; 0.10 µM): -0.73 log2; log2FoldChange ABCA6 (LUHMES cells [1]; 0.10 µM): 1.05 log2; EC25 KE4 (AO) Neurite toxicity (LUHMES cells [3]; [5]): 4.4 -log[M] |
| CC(C)(C)c1ccc(CSc2cnn(C(C)(C)C)c(=O)c2Cl)cc1 [Pyridaben] | – | ≥ 800 | 40–60 | 79.4 µM | > 100 µM | 63.1 µM | > 100 µM | – |
| CCc1nn(C)c(C(=O)NCc2ccc(C(C)(C)C)cc2)c1Cl [Tebufenpyrad] | 5.6 | 1000 | 126 | 12.6 µM | > 100 µM | 20 µM | 20 µM | log2FoldChange AARS (LUHMES cells [1]; 0.09 µM): -0.0653 log2; log2FoldChange AASDHPPT (LUHMES cells [1]; 0.09 µM): 0.0475 log2; log2FoldChange AATF (LUHMES cells [1]; 0.09 µM): 0.19 log2; log2FoldChange ABCA1 (LUHMES cells [1]; 0.09 µM): -0.37 log2; log2FoldChange ABCA6 (LUHMES cells [1]; 0.09 µM): 0.84 log2; EC25 (SH-SY5Y cells; Homo sapiens, SH-SY5Y differentiated 6 days, treated 24 h, rhodamine-123, read-out: pEC25 MMP (concentration where MMP was reduced by 25%) (converted)): 3.16 µM; EC25 (LUHMES cells [3]; NeuriTox test, neurite outgrowth impairment, LUHMES 24 h, read-out: EC25 KE4 (AO) Neurite toxicity (converted)): 20 µM |
| CO/N=C(/C(=O)OC)c1ccccc1CO/N=C(\C)c1cccc(C(F)(F)F)c1 [Trifloxistrobin] | – | – | ≥ 10 | – | – | – | – | – |
